In patent US20250172542A1, “METHOD FOR INDUCING ARTIFICIAL AGEING IN A STEM CELL AND USES OF SAID CELL” (Clock Bio Limited, priority 2022, published 2025):

Key:
Bob NGN2 and Bob N2P iNs = assay: RT-PCR of neuronal markers in iNeurons treated with or without cumate; type: cell-based, human; details: RT-PCR relative to PBGD1
Experimental: (§1) NGN2 and NGN2-Progerin iPSCs were dissociated into single cells with Accutase and plated onto PDL/Geltrex coated dishes at a density of 30K cells per cm^2. Forward programming was initiated 24 hours after the split. The induction was performed in DMEM/F-12 supplemented with Glutamax (100×), Non-Essential Amino Acids (100×), 50 μM 2-Mercaptoethanol (Gibco), 1% Penicillin/Streptomycin, 1 μg/mL Dox. After 2 days of induction, the medium was switched to Neurobasal-medium supplemented with Glutamax (100×), B27 (50×), 10 ng/mL BDNF (Peprotech), 10 ng/mL NT3 (R&D Systems), 1% Penicillin/Streptomycin, and 1 μg/mL Dox. In order to age NGN2-Progerin iNeurons (iNs), at D7 post induction, cumate was added to the medium for 7 days. Pre-aged iNs were induced as described above from 5 days aged NGN-Progerin iPSCs, no additional cumate was added during the induction process.
cDNA synthesis was performed with the Maxima First Strand cDNA Synthesis Kit (Thermo Fisher Scientific). PowerUp SYBR Green Master Mix (Thermo Fisher Scientific) was used for RT-PCR. Samples were run on the QuantStudio 6 Flex Real-Timer PCR System machine (Applied Biosystems). All samples were analysed in technical duplicates and normalised to the house-keeping gene Porphobilinogen Deaminase 1 (PBGD1). Results were analysed with the ΔΔCt method. […]

[1] = test system: GFP-Progerin expression under the cumate switch (CymR/CuO); assay: Cumate dose response assay (GFP-Progerin expression in iNeurons); type: cell-based, human; details: neurons induced with doxycycline and cumate
Experimental: as §1
In order to allow for a separate control of NGN2 and progerin expression, the OPTi-OX technology was used and a dual system designed which is based on both the TetOn (Baron and Bujard (2000)) and the cumate switch (Mullick et al. (2006); Sato et al. (2020); and Seo and Schmidt-Dannert (2019)) inducible systems. This new system was referred to as (Opti-OX)^2. The cumate repressor (CymR) was first cloned into the original ROSA26 targeting vector, linked by a 2A sequence to rtTA (FIGS. 7A-F). […]

CC(C)c1ccc(C(=O)O)cc1 [cumate]
effect of cumate itself on gene expression (MAP2 and synapsin-1 downregulation) (Bob NGN2 and Bob N2P iNs): not responsible for the changes seen in gene expression | GFP expression as a function of cumate dose [1]: titrated by adjusting the dose
